Legend:
[1] = test system: IFNγ-induced STAT1 phosphorylation in CD14+ monocytes; assay: Human whole blood pSTAT1 proximal pharmacodynamic (PD) assay; type: cell-based; details: Monocyte, 3 hours compound, IFNγ 20 minutes
Experimental: Example 230: Human Whole Blood pSTAT1 Proximal Pharmacodynamic (PD) Assay Human blood samples were acquired through internal AbbVie Inc's blood donation program in accordance with AbbVie's Occupational Safety and Health Administration protocols. Blood was collected by venipuncture into sodium heparin coated vacutainer tubes and kept at room temperature for no longer than 1 hour prior to the experiment initiation. Human blood samples (90 μL) were added to the individual wells of 96-well plates containing 10 μL of 10× working stock solutions of increasing concentrations of compounds to achieve final concentrations ranging from 0.025 μM to 500 μM and incubated for 3 hours at 37° C. To induce STAT1 phosphorylation the samples were then treated with recombinant human IFNγ (R&D Systems, Catalog^#285-IF, Minneapolis, Minn.; 100 nM final concentration) for 20 minutes, and 3 μL/well BV421 labeled anti-CD14 surface antibody (Biolegend, San Diego, Calif., Catalog^#301830) was added for 45 minutes before fixation and red blood cell lysis was performed with BD Phosflow Lyse/Fix buffer (BD Biosciences, San Jose, Calif., Catalog^#558049). Cells were subsequently permeabilized on ice by the addition of BD Perm III buffer (BD Biosciences, San Jose, Calif., Catalog^#558050) and stored at -80° C. until use. Before staining, the cells were washed with PBS containing 0.1% BSA. Optim/zed concentrations of BUV395 labeled anti-CD45 (BD Biosciences, San Jose, Calif., Catalog^#563792) and PE labeled anti-phospho-STAT1 ([…]; Invitrogen, Carlsbad, Calif., Catalog^#12-9008-42) antibodies were added to the cell suspensions and incubated for 2 hours. The cells were washed with PBS containing 0.1% BSA and analyzed on a BD LSRFortessaTM X20 flow cytometer (BD Biosciences, San Jose, Calif.) using BD FACSDivaTM software. The data was analyzed using FlowJo V10 analysis software (Flow Jo LLC, Ashland, Oreg.). The amount of STAT phosphorylation was measured by the mean fluorescence intensity (MFI) of pSTAT1 in CD14+monocytes. Compound dose-response curves were determined using a four-parameter logistic-nonlinear regression model from which half maximal effective concentrations (EC50) were calculated. All statistical analyses utilized GraphPad software (San Diego, Calif.).

[2] = target: T1, His tagged full-length PTPN1 protein (Homo sapiens, UniProt P18031); assay: Mobility shift assay (MSA) used to determine potency of PTPN1 inhibitors; type: biochemical; details: enzyme 0.5 nM, substrate 2 μM
T1 construct: made in house
T1 sequence (P18031 with tags, fused parts or gaps): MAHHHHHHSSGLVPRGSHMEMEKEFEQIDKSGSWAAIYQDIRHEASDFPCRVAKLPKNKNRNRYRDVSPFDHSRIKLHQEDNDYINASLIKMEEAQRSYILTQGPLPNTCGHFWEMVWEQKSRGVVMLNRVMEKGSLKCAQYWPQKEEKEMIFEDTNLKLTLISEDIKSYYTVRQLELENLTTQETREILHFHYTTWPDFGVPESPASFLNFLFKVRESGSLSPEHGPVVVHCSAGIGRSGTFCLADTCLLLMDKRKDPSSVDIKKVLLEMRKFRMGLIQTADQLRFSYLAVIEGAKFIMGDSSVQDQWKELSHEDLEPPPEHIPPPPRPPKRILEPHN
In short: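 Full-length His-tagged human PTPN1 (0.5 nM) was preincubated 10 min at room temperature with compound (12-point, 1:3 dilution) in HEPES pH 7.5 buffer with EGTA, EDTA, Tween 20 and DTT. A 2 μM fluorescent phospho-insulin receptor peptide was then added for 10 min before quench. Mobility-shift % conversion gave % inhibition and IC50.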

| Compound | EC50 [1] | IC50 [2] |
| --- | --- | --- |
| CC(C)CCN[C@@H]1CCc2cc(O)c(N3CC(=O)NS3(=O)=O)c(F)c2C1 (single isomer, unassigned) [Compound 118] | 580 nM | 1 to 10 nM |
| O=C1CN(c2c(O)cc3c(c2F)C[C@H](NCCC2CC2)CC3)S(=O)(=O)N1 (single isomer, unassigned) [Compound 133] | 1600 nM | 1 to 10 nM |
| CC(C)(CCN[C@@H]1CCc2cc(O)c(N3CC(=O)NS3(=O)=O)c(F)c2C1)C(F)(F)F (single isomer, unassigned) [Compound 177] | 2000 nM | 1 to 10 nM |
| O=C1CN(c2c(O)cc3c(c2F)C[C@@H](NCCC(F)F)CC3)S(=O)(=O)N1 (single isomer, unassigned) [Compound 259] | 14200 nM | 10 to 100 nM |

Results, then the compound that gave them:

| EC50 [1] | IC50 [2] | Compound |
| --- | --- | --- |
| 830 nM | < 1 nM | O=C1CN(c2c(O)cc3c(c2F)C[C@H](NCCCC(F)F)CC3)S(=O)(=O)N1 (single isomer, unassigned) [Compound 199] |
| 4400 nM | 1 to 10 nM | O=C1CN(c2c(O)cc3c(c2F)C[C@H](NCCC(F)F)CC3)S(=O)(=O)N1 (single isomer, unassigned) [Compound 260] |
